# Assay results as given in patent US9901637B2, “Vitamin D3 and analogs thereof for treating alopecia” (priority 2009, dated 2018).
# Like-named read-outs stand apart in the source and are kept apart here.
# Assays:
# HEKa cells [1] = assay: Proteomic analysis (2-D gel electrophoresis) of calcitriol-treated HEKa; type: cell-based, human; details: 0.1 μg/mL calcitriol
# Method: The cell pellets were then analyzed using proteomic methods, such as 2-D gel and Western blot analysis. […] In all, analysis of about 458 protein spots in the comparative study was performed, comparing the control sample against the 3-, 6-, and 24-hour treatment samples. Six spots showing statistically significant differential changes were identified. These spots were excised, and their protein contents subjected to sequence identification by trypsin digestion and mass spectrometry characterization.
# HEKa cells [2] = assay: Pretreatment of cells with calcitriol, cell viability assay with chemotherapy drugs; type: cell-based, human
# Excerpt: Then these pretreated cells were utilized to set up the cell-based assay. […] The four cancer cell lines continued to grow and were not altered in their general morphological appearances. […] For this cell line, a new batch of cells were started and were exposed to only a single passage in the presence of calcitriol, prior to testing in the presence of the chemotherapy drugs. Three commonly used chemotherapy drugs (doxorubicin, cisplatin and erlotinib) were selected to evaluate calcitriol treated cells. […] In these experiments, the commercial drugs were serially diluted, starting at a concentration 4-times higher than the final desired concentration for cell incubation. […] The assay was carried out according to the previously described method in order to provide consistency and allow direct comparison. The result was based upon measurement of the total number of viable cells. […] Thus, a topical application of calcitriol could be applied at the same time as the systemic delivery of the chemotherapy. A staged application is not required.
# SKMEL-28 (melanoma) = assay: Cell growth/viability assay, calcitriol with or without chemotherapy drug; type: cell-based
# [3] = system: NIH-3T3 (immortalized fibroblast); assay: as above; type: cell-based
# PC-3 = assay: Cell viability assay after calcitriol exposure for two passages; type: cell-based; details: PC-3, 0.1 μg/mL calcitriol for two passages
# Method: Then these pretreated cells were utilized to set up the cell-based assay. […] Three commonly used chemotherapy drugs (doxorubicin, cisplatin and erlotinib) were selected to evaluate calcitriol treated cells. […] In these experiments, the commercial drugs were serially diluted, starting at a concentration 4-times higher than the final desired concentration for cell incubation.
# [4] = system: chemotherapy-induced alopecia (CIA); details: for protection from etoposide-induced alopecia: etoposide 1.5 mg/kg daily for 3 days
# Method: Specifically, Long Evans and Sprague Dawley rats with pups were purchased from Harlan Laboratories, Inc. They were housed and fed according to applicable animal handling rules and regulations. Pups were allowed to acclimate for 48 hours prior to the start of experiments. […] Rats were isolated from their littermates and mother for 6-hour periods of time. Subsequently, the treated area was cleaned with soap and water and pups were returned to their litters. On day 13, rats either received etoposide (1.5 mg/kg daily for 3 days) or cyclophosphamide (CTX) (37.5 mg/kg once) or combination cyclophosphamide (35 mg/kg once) and doxorubicin (2.5 mg/kg daily for 3 days). All chemotherapies were purchased from Sigma and were given intraperitoneally (i.p.) in a total volume of 0.1 mL. Alopecia was recorded 10 days after the last dose of chemotherapy.
# MIAC51 = assay: Survival (cure) rate of chloroleukemic rats after two rounds of chemotherapy; type: in vivo, Long Evans Rats
# Method: Animals were then randomized in four groups. All rats received MIAC51 as described below.
# On day 5 after birth all rats received 1×105 MIAC51 intraperitoneally in 0.1 ml of serum free (SF) RPMI. MIAC51 were cultured in RPMI 1640 supplemented with L-glutamine and 10% fetal bovine serum at […] in a 5% CO2, 100% humidity incubator. Cells were grown to 50% confluency (1.5×106 ml) collected in 50 ml conical tubes, centrifuged at 600 g for 10 minutes at room temperature and resuspended in SF-RPMI at a concentration of 1×10^6/ml prior to injection.
# in vivo = details: Gottingen, minipig, topical
# Excerpt: At the end of the study, the skin was reflected from a ventral midline incision, and sections of treated and untreated skin were collected and preserved. Sections of each 6×6 cm dosing site were first thoroughly surface washed with a mild soap and water mixture (e.g., 1% Ivory Soap in water or equivalent) to remove any residual topical test formulation. The washed skin sections were then wiped clean with ethanol, and were excised down to and including the adipose layer. If the area to be excised is larger than the dosed area, the dosed area was demarked with indelible ink to delineate the skin area that was dosed. The 1.5 cm×1.5 cm sections were laid flat, wrapped in two layers of Saran wrap (or equivalent) and flash frozen in liquid nitrogen. The samples were stored at −70° C. and shipped on dry ice via overnight courier for analysis. Each skin section was identified as appropriate (e.g., animal identification, study number, date, etc).
# Upon arrival at the analysis site, skin sections were placed in water tight plastic bag and thawed by emersion in warm water (˜30° C.-35° C.). Each skin section was gently rinsed with distilled de-ionized water to remove any residual test article and blood. All subcutaneous tissue (e.g., adipose) was removed by manual scalpel ablation. Within the central region of the dosed area, four individual 1 cm^2 circles (replicates) were demarked, and each site was subsequently identified and the actual area recorded. The replicate test sites were then excised from the skin sheet using a 1 cm^2 punch. The skin sections were weighed and the weight recorded. […] This process removed the stratum corneum and any residual surface dose.
# Following tape stripping, the skin was separated into epidermis (sans stratum corneum, simply referred to herein after as “epidermis”) and dermis by heat exposure to 60° C. for approximately 1-1.5 minutes. The skin layers were then teased apart using fine-tipped forceps or scalpel. The epidermis and dermis were weighed and the weight recorded.
# For extraction, all skin samples were extracted in 1 mL of absolute ethanol (Sigma-Aldrich, USP/NF Grade). Tape strips were extracted in 5 mL acetonitrile (EMD, HPLC Grade). All extractions were conducted at room temperature for approximately 24 hours. An amount of 500 μL of the tape strip extract was dried by vacuum centrifugation and reconstituted in 100 μL absolute acetonitrile. The epidermal extract was also dried and reconstituted in 100 μL 80:20 ethanol:water.
# Lower limit of detection is estimated at 0.4 ng/mL.
# However, the concentration reported, as μg/mg, is determined by the differential total sample weight before layer separation minus the weights of the epidermis and dermis for that sample (rather than by actual weight due to its adherence to the tape strips). Epidermal and dermal samples are reported as tissue concentration (ng/mg) using the amount measured from the sample divided by actual wet weight of the skin layer.
smiles,measurement,setting,value
"C=C1/C(=C\C=C2/CCC[C@]3(C)[C@@H]([C@H](C)CCCC(C)(C)O)CC[C@@H]23)C[C@@H](O)C[C@@H]1O [Calcitriol, 1,25-dihydroxyvitamin D3]",Glutathione S-transferase (GST) Response,"HEKa cells [1]; at 3, 6, and 24 hours, 2-D gel spot 4","up at 3,"
same,S100 A13 Response,"HEKa cells [1]; at 6 and 24 hours, spot 14",up at
same,Galectin 1 (LGALS1) Response,"HEKa cells [1]; at 6 and 24 hours, spot 27",up at
same,Keratin 1 (KRT1) Response,"HEKa cells [1]; at 6 hours, spot 2",up at
same,growth of HEKa cells after prolonged calcitriol exposure,HEKa cells [2]; 0.1 μg/mL calcitriol for two cell passages,stopped growing
same,"chemoprotective effect, pre-treatment group versus simultaneous treatment group","HEKa cells [2]; 0.1 μg/mL calcitriol, doxorubicin, cisplatin, erlotinib",nearly identical
same,effect of calcitriol on cell growth,SKMEL-28 (melanoma); SKMEL-28,no significant growth promoting or growth inhibiting effects
same,effect on the cytotoxic effect of Doxorubicin,SKMEL-28 (melanoma); SKMEL-28,did not appear to appreciably alter
same,5-FU ED50 curve with versus without calcitriol,"SKMEL-28 (melanoma); SKMEL-28, 0.1 μg/mL calcitriol",not significantly different
same,effect of calcitriol on cell growth,[3],no significant growth promoting or growth inhibiting effects
same,effect on the cytotoxic effect of Doxorubicin,[3],did not appear to appreciably alter
same,"response to other drugs (doxorubucin, cisplatin, erlotinib) after calcitriol exposure",PC-3,did not alter
same,dosage protective against CIA,"[4]; neonatal rat, administered as 100 μL of 2 μg/mL topical solution",about 0.2 μg
same,protection from etoposide-induced alopecia,"[4]; neonatal rats, 0.1 μg of calcitriol topical for 6 hours daily, 6 days",partial localized protection
same,protection from cyclophosphamide-induced alopecia,"[4]; neonatal rats, 0.3 μg calcitriol topical, cyclophosphamide 37.5 mg/kg once",full body protection
same,protection from etoposide-induced alopecia,"[4]; neonatal rats, 0.3 calcitriol topical",total body protection
same,interference with the cure rate,"MIAC51; cyclophosphamide and doxorubicin group, cure rate in the range of 50-55%",did not interfere with the cure rate
same,interference with the cure rate,"MIAC51; cyclophosphamide group, cure rate in the range of 20-25%",did not interfere with the cure rate
same,interference with the cure rate,"MIAC51; cyclophosphamide, doxorubicin and cytarabine group, cure rate in the range of 75-80%",did not interfere with the cure rate
same,interference with the cure rate,"MIAC51; cyclophosphamide, paclitaxel and etoposide group, cure rate in the range of 78-83%",did not interfere with the cure rate
same,interference with the cure rate,"MIAC51; doxorubicin, paclitaxel and etoposide group, cure rate in the range of 80-83%",did not interfere with the cure rate
same,"Stratum Corneum, Calcitriol Recovered, Mean ± SD","Female Minipigs, 1 μg/mL dermal twice daily 7 days",0.76 ± 1.3 (3) ng/cm2
same,"Stratum Corneum, Calcitriol Recovered, Mean ± SD","Female Minipigs, 3 μg/mL dermal twice daily 7 days",1.12 ± 1.49(3) ng/cm2
same,"Stratum Corneum, Calcitriol Recovered, Mean ± SD","Female Minipigs, 10 μg/mL dermal twice daily 7 days",1.65 ± 1.80 (3) ng/cm2
same,"Stratum Corneum, Calcitriol Recovered, Mean ± SD","Female Minipigs, 30 μg/mL dermal twice daily 7 days",20.2 ± 11.7 (3) ng/cm2
same,"Stratum Corneum, Calcitriol Recovered, Mean ± SD","Male Minipigs (1 animal), 100 μg/mL dermal twice daily 7 days",118.1 ± 11.4 (1) ng/cm2
same,"Stratum Corneum, Calcitriol Recovered, Mean ± SD","Male Minipigs, 1 μg/mL dermal twice daily 7 days",56.1 ± 17.4 (3) ng/cm2
same,"Stratum Corneum, Calcitriol Recovered, Mean ± SD","Male Minipigs, 3 μg/mL dermal twice daily 7 days",62.4 ± 7.91 (3) ng/cm2
same,"Stratum Corneum, Calcitriol Recovered, Mean ± SD","Male Minipigs, 10 μg/mL dermal twice daily 7 days",59.6 ± 14.1 (3) ng/cm2
same,"Stratum Corneum, Calcitriol Recovered, Mean ± SD","Male Minipigs, 30 μg/mL dermal twice daily 7 days",54.6 ± 32.5 (3) ng/cm2
same,applied dose correlation to tissue level in the epidermis,"minipigs, calcitriol concentrations from 3 to 100 μg/mL",near linear increase
same,concentration at 7 days,"in vivo; female, stratum corneum (tape strips), 1 μg/mL",30 ± 50 ng/g
same,concentration at 7 days,"in vivo; female, stratum corneum (tape strips), 3 μg/mL",40 ± 60 ng/g
same,concentration at 7 days,"in vivo; female, stratum corneum (tape strips), 10 μg/mL",50 ± 40 ng/g
same,concentration at 7 days,"in vivo; female, stratum corneum (tape strips), 30 μg/mL",640 ± 370 ng/g
same,concentration at 7 days,"in vivo; female, 1 μg/mL",0 ng/g
same,concentration at 7 days,"in vivo; female, 3 μg/mL",0 ng/g
same,concentration at 7 days,"in vivo; male, stratum corneum (tape strips), 1 μg/mL",1540 ± 790 ng/g
same,concentration at 7 days,"in vivo; male, stratum corneum (tape strips), 3 μg/mL",1630 ± 250 ng/g
same,concentration at 7 days,"in vivo; male, stratum corneum (tape strips), 10 μg/mL",2020 ± 390 ng/g
same,concentration at 7 days,"in vivo; male, stratum corneum (tape strips), 30 μg/mL",1510 ± 890 ng/g
same,concentration at 7 days,"in vivo; male, stratum corneum (tape strips), 100 μg/mL",4520 ± 1210 ng/g
